Here are results for seven compounds from US11225505B2, “Antimicrobial polymyxin derivative compounds” (MONASH UNIVERSITY, priority 2015, dated 2022).

Converted amounts (≈) assume the structure as drawn. Where a SMILES comes first, the peptide text is derived from it. Bridges are numbered along the chain shown (N, C = ends). [ ]: non-standard residue; d: D form. The star is where a group is joined. X19 = O=C(c1ncc(C(F)(F)F)cc1Cl)*; X1 = O=C(c1ncc(Cl)cc1Cl)*; X50 = O=C(c1sc(Br)cc1Br)*; X29 = O=C(c1cc(Cl)ccn1)*; X65 = O=C(c1cc(Br)ccn1)*; X7 = O=C(c1nc2ccccc2o1)*; Dab = NCC[C@H](N)C(=O)O; X3 = O=C(c1cncc(Cl)c1)*; Abu = CC[C@H](N)C(=O)O; Dap = NC[C@H](N)C(=O)O

Common to all, as to format: cell-based
In experiment [1] the test system is Acinetobacter baumannii FADDI-AB030. In words: microbe, parasite or virus in culture. The following applies: FADDI-AB030. A digest of the protocol:
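Lipopeptide TFA salts tested against the multidrug-resistant clinical isolate by CLSI (M100-S24) broth microdilution in cation-adjusted Mueller-Hinton broth, with polymyxin B sulphate as control; MIC read.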

In experiment [2] the test system is Pseudomonas aeruginosa ATCC 27853. The following applies: ATCC 27853. The method, boiled down: (§1)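 Lipopeptide TFA salts were serially diluted in cation-adjusted Mueller-Hinton broth, inoculated with polymyxin-susceptible Gram-negative bacteria and scored for MIC according to CLSI guidance (M100-S24). Polymyxin B sulphate was included as comparator.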
Experiment [3] concerns Acinetobacter baumannii FADDI-AB034. The following applies: FADDI-AB034. The method, boiled down: as §1
Experiment [4] relates to Enterobacter cloacae FADDI-EC006. The following applies: FADDI-EC006. The method, boiled down:
as §1

The test system of experiment [5] is Klebsiella pneumoniae FADDI-KP022. The following applies: FADDI-KP022. The method, boiled down:
as §1

Experiment [6] relates to Enterobacter cloacae FADDI-EC003. The note with it: FADDI-EC003. The method, boiled down: as §1
Experiment [7] relates to Klebsiella pneumoniae Kp BM1. The following applies: Kp BM1. A digest of the protocol:
(§2)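 Susceptibility of polymyxin-susceptible Gram-negative strains, including multidrug-resistant clinical isolates PA022 and AB034, was tested by broth microdilution. Cation-adjusted Mueller-Hinton broth and the CLSI M100-S24 method were used.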

Experiment [8] relates to Klebsiella pneumoniae FADDI-KP032. The following applies: FADDI-KP032. The method, boiled down:
as §1

The test system of experiment [9] is Enterobacter cloacae FADDI-EC001. The note with it: FADDI-EC001. The method, boiled down:
as §2

Experiment [10] deals with Pseudomonas aeruginosa FADDI-PA01. The note with it: FADDI-. The method, boiled down: as §1
Experiment [11] concerns Acinetobacter baumannii ATCC 17978. The following applies: ATCC 17978. A digest of the protocol: as §1
Experiment [12] has as its system Pseudomonas aeruginosa FADDI-PA022. The following applies: FADDI-PA022. The method, boiled down:
as §1

The subject of experiment [13] is Pseudomonas aeruginosa FADDI-PA038. The note with it: FADDI-PA038. A digest of the protocol: as §1

With `CC[C@@H]1NC(=O)[C@@H](CC(C)C)NC(=O)[C@H](CCN)NC(=O)[C@@H](NC(=O)[C@H](CN)NC(=O)[C@@H](NC(=O)[C@H](CCN)NC(=O)c2nc3ccccc3o2)[C@@H](C)O)CCNC(=O)[C@H]([C@@H](C)O)NC(=O)[C@H](CCN)NC(=O)[C@H](CCN)NC1=O` [Compound 74] (X7-[Dab]T[Dap][Dab][Dab][dL][Abu][Dab][Dab]T; lactam 4-C), the Minimum inhibitory concentration in experiment [1] is listed as 0.5 mg/L (≈ 0.442 µM); in [2] it was 0.25 mg/L (≈ 0.221 µM); in [3] it was 1 mg/L (≈ 0.883 µM); in [4] it was 0.5 mg/L (≈ 0.442 µM); in experiment [5] it was less than 0.125 mg/L; in experiment [6] it was less than 0.125 mg/L. Further, the Minimum inhibitory concentration is reported as 0.25 mg/L (≈ 0.221 µM) in experiment [7]; 0.25 mg/L (≈ 0.221 µM) in [8]; less than 0.125 mg/L in [9]; 0.5 mg/L (≈ 0.442 µM) in experiment [10]; 1 mg/L (≈ 0.883 µM) in experiment [11]; 0.25 mg/L (≈ 0.221 µM) in experiment [12]. Also, the Minimum inhibitory concentration in experiment [13] came out at 0.5 mg/L (≈ 0.442 µM).

As to `CC[C@@H]1NC(=O)[C@@H](CC(C)C)NC(=O)[C@H](CCN)NC(=O)[C@@H](NC(=O)[C@H](CN)NC(=O)[C@@H](NC(=O)[C@H](CCN)NC(=O)c2ncc(C(F)(F)F)cc2Cl)[C@@H](C)O)CCNC(=O)[C@H]([C@@H](C)O)NC(=O)[C@H](CCN)NC(=O)[C@H](CCN)NC1=O` [Compound 35] (X19-[Dab]T[Dap][Dab][Dab][dL][Abu][Dab][Dab]T; lactam 4-C), the Minimum inhibitory concentration in [1] is less than 0.125 mg/L; in [2] it was 0.25 mg/L (≈ 0.209 µM); in experiment [3], 0.25 mg/L (≈ 0.209 µM); in [4] it was less than 0.125 mg/L; in experiment [5], less than 0.125 mg/L; in experiment [6], less than 0.125 mg/L. Besides, the Minimum inhibitory concentration is recorded as less than 0.125 mg/L in experiment [7]; less than 0.125 mg/L in [8]; less than 0.125 mg/L in [9]; 0.25 mg/L (≈ 0.209 µM) in experiment [10]; 0.25 mg/L (≈ 0.209 µM) in [11]; 0.5 mg/L (≈ 0.419 µM) in experiment [12]. The compound also registered a Minimum inhibitory concentration in experiment [13] of 0.5 mg/L (≈ 0.419 µM).

Turning to `CC[C@@H]1NC(=O)[C@@H](CC(C)C)NC(=O)[C@H](CCN)NC(=O)[C@@H](NC(=O)[C@H](CN)NC(=O)[C@@H](NC(=O)[C@H](CCN)NC(=O)c2cncc(Cl)c2)[C@@H](C)O)CCNC(=O)[C@H]([C@@H](C)O)NC(=O)[C@H](CCN)NC(=O)[C@H](CCN)NC1=O` [Compound 6] (X3-[Dab]T[Dap][Dab][Dab][dL][Abu][Dab][Dab]T; lactam 4-C), the Minimum inhibitory concentration in experiment [1] was 1 mg/L (≈ 0.888 µM); in [2], 1 mg/L (≈ 0.888 µM); in [3] it was 2 mg/L (≈ 1.78 µM); in experiment [4] it was 0.25 mg/L (≈ 0.222 µM); in experiment [5], less than 0.125 mg/L; in [6], less than 0.125 mg/L. Besides, the Minimum inhibitory concentration in experiment [7] was 0.5 mg/L (≈ 0.444 µM); in experiment [8], 0.25 mg/L (≈ 0.222 µM); in experiment [9], 0.25 mg/L (≈ 0.222 µM); in [10], 0.5 mg/L (≈ 0.444 µM); in experiment [11], 2 mg/L (≈ 1.78 µM); in experiment [12], 1 mg/L (≈ 0.888 µM). Moreover, the Minimum inhibitory concentration in experiment [13] stood at 0.5 mg/L (≈ 0.444 µM).

In the case of `C[C@@H](O)[C@@H]1NC(=O)[C@H](CCN)NC(=O)[C@H](CCN)NC(=O)[C@H]([C@@H](C)O)NC(=O)[C@@H](Cc2ccccc2)NC(=O)[C@H](CCN)NC(=O)[C@@H](NC(=O)[C@H](CN)NC(=O)[C@@H](NC(=O)[C@H](CCN)NC(=O)c2ncc(Cl)cc2Cl)[C@@H](C)O)CCNC1=O` [Compound 11] (X1-[Dab]T[Dap][Dab][Dab][dF]T[Dab][Dab]T; lactam 4-C), the Minimum inhibitory concentration in [1] is given as 2 mg/L (≈ 1.65 µM); in experiment [2] it was 0.25 mg/L (≈ 0.206 µM); in experiment [3], 1 mg/L (≈ 0.826 µM); in experiment [4], less than 0.125 mg/L; in experiment [5], less than 0.125 mg/L; in experiment [6], less than 0.125 mg/L. For the same compound, the Minimum inhibitory concentration was 1 mg/L (≈ 0.826 µM) in experiment [7]; less than 0.125 mg/L in [8]; less than 0.125 mg/L in experiment [9]; 0.5 mg/L (≈ 0.413 µM) in experiment [10]; 1 mg/L (≈ 0.826 µM) in experiment [11]; 0.25 mg/L (≈ 0.206 µM) in experiment [12]. The Minimum inhibitory concentration in experiment [13] is 1 mg/L (≈ 0.826 µM).

For the compound `CC(C)C[C@H]1NC(=O)[C@H](CCN)NC(=O)[C@@H](NC(=O)[C@H](CN)NC(=O)[C@@H](NC(=O)[C@H](CCN)NC(=O)c2sc(Br)cc2Br)[C@@H](C)O)CCNC(=O)[C@H]([C@@H](C)O)NC(=O)[C@H](CCN)NC(=O)[C@H](CCN)NC(=O)[C@H](C)NC1=O` [Compound 99] (X50-[Dab]T[Dap][Dab][Dab][dL]A[Dab][Dab]T; lactam 4-C), the Minimum inhibitory concentration in [1] is 0.5 mg/L (≈ 0.403 µM); in experiment [2], 0.25 mg/L (≈ 0.201 µM); in [3], 0.5 mg/L (≈ 0.403 µM); in experiment [4], less than 0.125 mg/L; in [5], less than 0.125 mg/L; in experiment [6], 0.25 mg/L (≈ 0.201 µM). In addition, the Minimum inhibitory concentration in experiment [7] was 0.25 mg/L (≈ 0.201 µM); in experiment [8], less than 0.125 mg/L; in experiment [9], less than 0.125 mg/L; in experiment [10], 0.25 mg/L (≈ 0.201 µM); in [11], 1 mg/L (≈ 0.806 µM); in experiment [12], 0.25 mg/L (≈ 0.201 µM). The compound also returned a Minimum inhibitory concentration in experiment [13] of 1 mg/L (≈ 0.806 µM).

As for `CC(C)C[C@H]1NC(=O)[C@H](CCN)NC(=O)[C@@H](NC(=O)[C@H](CN)NC(=O)[C@@H](NC(=O)[C@H](CCN)NC(=O)c2cc(Cl)ccn2)[C@@H](C)O)CCNC(=O)[C@H]([C@@H](C)O)NC(=O)[C@H](CCN)NC(=O)[C@H](CCN)NC(=O)[C@H]([C@@H](C)O)NC1=O` [Compound 98] (X29-[Dab]T[Dap][Dab][Dab][dL]T[Dab][Dab]T; lactam 4-C), the Minimum inhibitory concentration in experiment [1] is listed as 1 mg/L (≈ 0.875 µM); in experiment [2] it was 0.25 mg/L (≈ 0.219 µM); in [3] it was 2 mg/L (≈ 1.75 µM); in experiment [4] it was 0.5 mg/L (≈ 0.438 µM); in experiment [5], less than 0.125 mg/L; in [6] it was less than 0.125 mg/L. For the same compound, the Minimum inhibitory concentration in [7] was 0.25 mg/L (≈ 0.219 µM); in experiment [8], 0.25 mg/L (≈ 0.219 µM); in [9], less than 0.125 mg/L; in experiment [10], 0.25 mg/L (≈ 0.219 µM); in experiment [11], 2 mg/L (≈ 1.75 µM); in experiment [12], 0.25 mg/L (≈ 0.219 µM). The compound also showed a Minimum inhibitory concentration in experiment [13] of 8 mg/L (≈ 7 µM).

`CC[C@@H]1NC(=O)[C@@H](CC(C)C)NC(=O)[C@H](CCN)NC(=O)[C@@H](NC(=O)[C@H](CN)NC(=O)[C@@H](NC(=O)[C@H](CCN)NC(=O)c2cc(Br)ccn2)[C@@H](C)O)CCNC(=O)[C@H]([C@@H](C)O)NC(=O)[C@H](CCN)NC(=O)[C@H](CCN)NC1=O` [Compound 102] (X65-[Dab]T[Dap][Dab][Dab][dL][Abu][Dab][Dab]T; lactam 4-C): the Minimum inhibitory concentration is 0.25 mg/L (≈ 0.213 µM) in experiment [1]; 0.5 mg/L (≈ 0.427 µM) in [2]; 0.5 mg/L (≈ 0.427 µM) in experiment [3]; less than 0.125 mg/L in experiment [4]; less than 0.125 mg/L in experiment [5]; less than 0.125 mg/L in [6]. The Minimum inhibitory concentration is less than 0.125 mg/L in experiment [7]; 0.25 mg/L (≈ 0.213 µM) in experiment [8]; less than 0.125 mg/L in experiment [9]; 0.5 mg/L (≈ 0.427 µM) in experiment [10]; 0.5 mg/L (≈ 0.427 µM) in experiment [11]; 0.5 mg/L (≈ 0.427 µM) in [12]. Moreover, in experiment [13], the Minimum inhibitory concentration is 1 mg/L (≈ 0.854 µM).
